Data published in ChEMBL document CHEMBL1201862, “PubChem BioAssay data set” (2004).
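Where inhibition never reached the appropriate level, the endpoint shown equals the highest concentration tested. Otherwise, values were interpolated linearly from a five-concentration, 48-hour dose response in 96-well plates. Abbreviation: GI50, concentration required for 50% inhibition of growth.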 Calls of active or inactive are those of the source. Cut-off read from the data, not from the text of the source: active = GI50 up to about 1.1 µM and inactive = higher.

Key:
Assay in all cases: NCI-60 cell line screen, 48 h
HCT-116 = system: HCT-116
Hs-578T = system: Hs-578T
SK-MEL-5 = system: SK-MEL-5
OVCAR-4 = system: OVCAR-4
K562 = system: K562
ACHN = system: ACHN
U-251 = system: U-251
Malme-3M = system: Malme-3M
A549 = system: A549
CCRF-CEM = system: CCRF-CEM
LOX IMVI = system: LOX IMVI
HL-60 = system: HL-60
SK-MEL-2 = system: SK-MEL-2
UACC-62 = system: UACC-62
SF-295 = system: SF-295
KM12 = system: KM12
SF-539 = system: SF-539
HOP-62 = system: HOP-62
COLO 205 = system: COLO 205
MOLT-4 = system: MOLT-4

Compound | GI50 (HCT-116) | GI50 (Hs-578T) | GI50 (SK-MEL-5) | GI50 (OVCAR-4) | GI50 (K562) | GI50 (ACHN) | GI50 (U-251) | GI50 (Malme-3M) | GI50 (A549) | GI50 (CCRF-CEM) | GI50 (LOX IMVI) | GI50 (HL-60) | GI50 (SK-MEL-2) | GI50 (UACC-62) | GI50 (SF-295) | GI50 (KM12) | GI50 (SF-539) | GI50 (HOP-62) | GI50 (COLO 205) | GI50 (MOLT-4)
Nn1c(Nc2ccc(S(N)(=O)=O)cc2)nnc(/C=C/c2c(O)ccc3ccccc23)c1=O | 16.3 µM (inactive) | 31 µM (inactive) | 14.5 µM (inactive) | 15.3 µM (inactive) | 17 µM (inactive) | 30.3 µM (inactive) | 39.9 µM (inactive) | 15.7 µM (inactive) | 28.1 µM (inactive) | 4.03 µM (inactive) | 12.9 µM (inactive) | 7.74 µM (inactive) | 39.8 µM (inactive) | 18.7 µM (inactive) | 24.3 µM (inactive) | 19.6 µM (inactive) | 35.7 µM (inactive) | 20.3 µM (inactive) | 27.1 µM (inactive) | 0.234 µM (active)
N=C(N)C1CN(CCCCCCCCCCN2CC(C(=N)N)C(O)=NC2=O)C(=O)N=C1O (stereo not given) | > 10 µM (inactive) | > 10 µM (inactive) | > 10 µM (inactive) | > 10 µM (inactive) | > 10 µM (inactive) | > 10 µM (inactive) | > 10 µM (inactive) | > 10 µM (inactive) | > 10 µM (inactive) | > 10 µM (inactive) | > 10 µM (inactive) | > 10 µM (inactive) | > 10 µM (inactive) | > 10 µM (inactive) | > 10 µM (inactive) | > 10 µM (inactive) | > 10 µM (inactive) | > 10 µM (inactive) | > 10 µM (inactive) | > 10 µM (inactive)
CC(C)(C)[Si](C)(C)OCC1OC(n2cnc3c(=O)[nH]cnc32)CC1O (stereo not given) | > 100 µM (inactive) | > 100 µM (inactive) | 60.5 µM (inactive) | > 100 µM (inactive) | > 100 µM (inactive) | > 100 µM (inactive) | > 100 µM (inactive) | > 100 µM (inactive) | > 100 µM (inactive) | > 100 µM (inactive) | > 100 µM (inactive) | > 100 µM (inactive) | > 100 µM (inactive) | > 100 µM (inactive) | > 100 µM (inactive) | > 100 µM (inactive) | > 100 µM (inactive) | > 100 µM (inactive) | > 100 µM (inactive) | > 100 µM (inactive)
CCCCCC(=O)OC[n+]1ccc(-c2c(COC(=O)NC(C)C)c(COC(=O)NC(C)C)c3n2CCC3)cc1 | > 100 µM (inactive) | > 100 µM (inactive) | > 100 µM (inactive) | > 100 µM (inactive) | > 100 µM (inactive) | 50.9 µM (inactive) | > 100 µM (inactive) | > 100 µM (inactive) | > 100 µM (inactive) | 43.2 µM (inactive) | > 100 µM (inactive) | 37.3 µM (inactive) | > 100 µM (inactive) | 26.5 µM (inactive) | > 100 µM (inactive) | > 100 µM (inactive) | > 100 µM (inactive) | > 100 µM (inactive) | > 100 µM (inactive) | 35.9 µM (inactive)
Nc1c(Cl)c([N+](=O)[O-])cc2c1OCCCCO2 | > 100 µM (inactive) | > 100 µM (inactive) | 44.9 µM (inactive) | > 100 µM (inactive) | > 100 µM (inactive) | > 100 µM (inactive) | 3.9 µM (inactive) | > 100 µM (inactive) | > 100 µM (inactive) | 79.6 µM (inactive) | 61.4 µM (inactive) | > 100 µM (inactive) | > 100 µM (inactive) | 95.5 µM (inactive) | > 100 µM (inactive) | > 100 µM (inactive) | > 100 µM (inactive) | > 100 µM (inactive) | > 100 µM (inactive) | > 100 µM (inactive)
CC(C)Cc1ccc(C(C)CC2=CCC(CN(C)C)C2=O)cc1 (stereo not given) | 4.17 µM (inactive) | 18.3 µM (inactive) | 15.3 µM (inactive) | 20.4 µM (inactive) | 2.25 µM (inactive) | 16.7 µM (inactive) | 6.34 µM (inactive) | 6.15 µM (inactive) | 18.3 µM (inactive) | 2.4 µM (inactive) | 4.97 µM (inactive) | 1.96 µM (inactive) | 13.2 µM (inactive) | 10 µM (inactive) | 17.1 µM (inactive) | 3.13 µM (inactive) | 16.3 µM (inactive) | 21.1 µM (inactive) | 2.69 µM (inactive) | 2.34 µM (inactive)
O=[N+]([O-])c1ccc(NN/N=N/c2ccc(-c3nc4ccccc4s3)cc2)c([N+](=O)[O-])c1 | 17.5 µM (inactive) | 33.5 µM (inactive) | 15.3 µM (inactive) | 24.6 µM (inactive) | 22.7 µM (inactive) | 22.2 µM (inactive) | 23.4 µM (inactive) | 28.2 µM (inactive) | 27.7 µM (inactive) | 28.6 µM (inactive) | 17.3 µM (inactive) | 16 µM (inactive) | 21 µM (inactive) | 14 µM (inactive) | 19.5 µM (inactive) | 27.5 µM (inactive) | 18.8 µM (inactive) | 21.9 µM (inactive) | 16.4 µM (inactive) | 13.7 µM (inactive)
